According to PMC9863004, “Development of [^124/125I]IAZA as a New Proteinopathy Imaging Agent for Alzheimer’s Disease” (Molecules, 2023):

What was measured:
[1] = target: T1, Aβ amyloid plaques (amyloid β) (Homo sapiens, UniProt P05067); assay: displacement of […]IAZA at […], autoradiography in human AD brain slices
T1 construct: gene APP; aggregated Aβ plaques in postmortem human AD brain slices

[2] = target: T1, Aβ amyloid plaques (amyloid β); assay: autoradiographic radioligand competition with […]IBETA in human AD brain slices; direct [[…]I]IAZA binding

T1 sequence (P05067 18-770): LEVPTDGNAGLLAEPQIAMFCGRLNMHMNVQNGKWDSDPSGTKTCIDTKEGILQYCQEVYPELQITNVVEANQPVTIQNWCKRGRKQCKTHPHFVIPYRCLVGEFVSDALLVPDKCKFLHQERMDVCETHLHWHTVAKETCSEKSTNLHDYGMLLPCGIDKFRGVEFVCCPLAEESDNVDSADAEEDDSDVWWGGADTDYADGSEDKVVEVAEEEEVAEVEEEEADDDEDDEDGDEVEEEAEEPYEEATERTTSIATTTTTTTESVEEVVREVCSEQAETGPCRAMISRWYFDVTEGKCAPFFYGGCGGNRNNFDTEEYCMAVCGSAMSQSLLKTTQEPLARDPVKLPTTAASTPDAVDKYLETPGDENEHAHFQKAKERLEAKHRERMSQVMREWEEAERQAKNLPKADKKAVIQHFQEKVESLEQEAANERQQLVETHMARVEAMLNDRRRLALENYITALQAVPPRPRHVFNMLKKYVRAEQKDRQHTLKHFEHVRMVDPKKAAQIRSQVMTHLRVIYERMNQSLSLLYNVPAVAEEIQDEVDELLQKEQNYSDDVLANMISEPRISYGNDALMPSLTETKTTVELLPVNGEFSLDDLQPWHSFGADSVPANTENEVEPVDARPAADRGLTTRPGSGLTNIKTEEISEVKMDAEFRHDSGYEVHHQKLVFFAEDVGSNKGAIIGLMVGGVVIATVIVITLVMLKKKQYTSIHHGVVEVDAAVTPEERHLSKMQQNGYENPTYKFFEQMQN

inhibition at 10 µM [1] [%] | Ki [2] [µM] | SMILES
> 95 |  | CN(C)c1ccc(-c2cc3cc(Br)ccc3o2)cn1 [BrBETA]
 | 0.0109 | CN(C)c1ccc(N=Nc2ccc(I)cc2)cc1 [compound 5, 4′-iodo-4-dimethylaminoazobenzene]
